The test system of the assay is P. falciparum 3D7 growth, pLDH absorbance. Description: blood-stage malaria parasite growth potency – strain 3D7, dose response (AID 2305).
`COc1ccc(CCNC(=O)c2cc(C)ccc2O)cc1-c1ccc(C(C)(C)C)cc1` returned a half-inhibitory concentration (IC50) of 480 nM.

`Nc1ncc(-c2cccc(CCN3CCOCC3)c2)cc1-c1nc2ccc(Br)cc2[nH]1` returned an IC50 of 280 nM. In the case of `C=C(C)CSc1nc2c(c(=O)n1CCc1ccccc1)C1(CCCC1)Cc1ccccc1-2` it was 610 nM; in that of `CCOc1ccc(C(C)NC(=O)c2cc(Cl)ccc2OC)cc1OCC` (stereo not given), 970 nM; in that of `Clc1cc(Cl)cc(Nc2ccnc(Nc3cc(Cl)cc(Cl)c3)n2)c1`, 670 nM. Compound `FC(F)(F)c1ccc2nc(-c3ccc(-c4ccc(CN5CCN(c6cnccn6)CC5)cc4)cc3)[nH]c2c1` showed an IC50 of 690 nM. In the case of `CN(CCN(C)CC(O)c1ccc(Cl)c(Cl)c1)CC(O)c1ccc(Cl)c(Cl)c1` (stereo not given) it was 1100 nM; in that of `Cc1c(Cc2ccccc2Cl)cnc2nc(N)nc(N)c12`, 10 nM.

`CCOc1ccc2nc(C)cc(NN=Cc3ccccc3F)c2c1` registered an IC50 of 740 nM. In the case of `CC(C)c1sc(N2CCCCC2)nc1C(=O)Nc1ccc(F)cc1C(F)(F)F` it was 240 nM; in that of `COc1ccc2c(NN=Cc3ccc(F)cc3)cc(C)nc2c1`, 770 nM. Compound `CCCCCCCN1CC[C@H](NC(=O)Nc2ccnc3ccc(OC)cc23)[C@H](CO)C1` yielded a half-inhibitory concentration (IC50) of 180 nM. The value for `O=C(N1CCN(c2ccnc3cc4c(cc23)N(Cc2ccccc2)CC4)CC1)C(F)(F)F` was 260 nM. The value for `CCOC(=O)C1=C(C)N=c2sc(=Cc3cc(Cl)ccc3O)c(=O)n2C1c1ccc(OC)cc1` (stereo not given) was 750 nM; that for `O=C(C=Cc1cccc(F)c1)NC1CCC(CCN2CCc3ccc(-c4cnccn4)cc3CC2)CC1` (stereo not given) was 450 nM; that for `COc1cc2ccccc2cc1CNCCCCCCNCc1cc2ccccc2cc1OC` was 720 nM. In the case of `CC(=O)Nc1ccc(NC(=O)c2cc(-c3ccc(C)cc3O)n[nH]2)cc1` it was 490 nM; in that of `CN(C)CCNC(=O)N1CCCN(c2ncnc3cc(-c4ccc(Cl)cc4)sc23)CC1`, 1020 nM; in that of `CSc1ccc(NC(=O)Nc2cc(C)nc3ccccc23)cc1`, 710 nM.

In the case of `N=C1c2ccccc2CN1CC(=O)c1ccc(Cl)c(Cl)c1`, the IC50 was determined as 730 nM.

`CC(C)c1ncc(-c2ccncc2)c(C2CCC(CNC(=O)c3ccncc3)CC2)n1` (stereo not given) displayed a half-maximal inhibitory concentration (IC50) of 1350 nM.

The compound `O=C(NCCCCN1CCC(c2c[nH]c3ccccc23)CC1)c1sc(-c2ccc(C(F)(F)F)cc2)nc1CO` had a concentration for half-maximal inhibition (IC50) of 1200 nM. The value for `O=[N+]([O-])c1cccc(CNC2CCN(Cc3ccc4ccccc4c3)CC2)c1` was 760 nM. The value for `COC(=O)C(C)(C)c1ccc(CC(C)NCC(O)c2cccc(C(F)(F)F)c2)cc1` (stereo not given) was 840 nM. In the case of `COc1cccc(NC(=O)Cn2c(C)c(C(=O)C(F)(F)F)c3ccccc32)c1` it was 830 nM; in that of `COc1ccccc1-c1csc(C(=O)NCC2CCN(Cc3ccc(C(C)C)cc3)C2)c1` (stereo not given), 1350 nM. Take `Cc1ccc(F)c(OC2CCN(c3ccc(C(=O)NC4CC4)cn3)CC2)c1`: the half-inhibitory concentration (IC50) was 820 nM. The value for `O=C(NCc1ccc(Cl)c(Cl)c1)c1ccc(C2CCN(Cc3ccc4nc[nH]c4c3)CC2)cc1` was 960 nM; that for `COc1cc2c(cc1OC)CN(CCc1ccc(NC(=O)c3cc4cc(OC(F)(F)F)ccc4[nH]3)cc1)CC2` was 530 nM; that for `N#Cc1cccc(NC(=O)Nc2cccc(-c3ccc(-c4nc5ccc(C(F)(F)F)cc5[nH]4)cc3)c2)c1` was 250 nM. The value for `O=C(Nc1ccc2c(c1)CCN2C1CCN(Cc2ccc(C(F)(F)F)cc2F)C1)c1ccco1` (stereo not given) was 510 nM; that for `COc1ccc2nccc([C@@H](O)CN3CCC(NCc4cc5ccccc5[nH]c4=O)CC3)c2c1` was 180 nM. In the case of `CC(C)NCc1ccc(-c2ccc(-c3nc4ccc(C(F)(F)F)cc4[nH]3)s2)cc1` it was 180 nM; in that of `O=C(Nc1ccccc1Cc1ccccc1)c1ccccc1[N+](=O)[O-]`, 860 nM. Take `O=C(NC1CCN(Cc2ccccc2)CC1)c1ccc(-c2nc3cc(Cl)c(F)cc3[nH]2)s1`: the IC50 is 310 nM.
